Source: patent publication US9708314B2, “Heterocyclic amide compound” (NISSAN CHEMICAL INDUSTRIES, LTD., priority 2013, dated 2017)

Legend:
Type in all cases: in vivo
[1] = test system: Cyperus difformis; test: Test Example 3: herbicidal effect by application to foliage (Wagner pot, water depth 0.1-0.5 cm); details: Nineteenth Table; for E (herbicidal effect grade): application to foliage
How it was run: (§1)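 Visual 0–5 rating of herbicidal ratio, taken 3 weeks after foliar spray of a diluted emulsion formulation at rates expressed as g/ha. Plants had been sown in alluvial soil under 0.1–0.5 cm water and grown 14 days at 25–30 °C under glass before application.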

[2] = test system: Echinochloa crus-galli var. crus-galli; test: as above; details: Nineteenth Table; for H (herbicidal effect grade): application to foliage
How it was run: as §1

[3] = test system: Leptochloa chinensis; test: as above; details: Nineteenth Table; for D (herbicidal effect grade): application to foliage
How it was run: as §1

[4] = test system: directly sowed Oryza sativa; test: Test Example 3: effect on crop by application to foliage (Wagner pot, water depth 0.1-0.5 cm); details: Nineteenth Table; for b (effect on crop grade): application to foliage
How it was run: as §1

[5] = test system: Abutilon theophrasti; test: Test Example 4: herbicidal effect by application to foliage (diluvial soil, plastic box); details: for M (Abutilon theophrasti) herbicidal effect grade: foliage application
Description: (§2) 5 Herbicidal ratio of 90% or more (almost completely withered) 4 Herbicidal ratio of 70% or more and less than 90% 3 Herbicidal ratio of 40% or more and less than 70% 2 Herbicidal ratio of 20% or more and less than 40% 1 Herbicidal ratio of 5% or more and less than 20% 0 Herbicidal ratio of 5% or less (almost no effect) [Test Example 4] Herbicidal Effect Test by Application to Foliage Sterilized diluvial soil was placed in a plastic box having a length of 21 cm, a width of 13 cm, and a depth of 7 cm. Each of the seeds of Digitaria ciliaris, Setaria viridis, Echinochloa crus-galli var. crus-galli, Avena fatua, Alopecurus myosuroides, Lolium multiflorum Lam., Apera spica-venti., Abutilon theophrasti, Amaranthus retroflexus, Chenopodium album, Stellaria media, Galium spurium, Veronica persica, Zea mays, Glycine max, Oryza sativa, Triticum aestivum, Beta vulgaris ssp. vulgaris, and Brassica campestris L. was sowed in a spot-like manner and was covered with the soil of about 1.5 cm thick. Thereafter, the plants were grown in the greenhouse of 25° C. to 30° C. After the plants were grown for 14 days, the emulsion agent containing the compound of the present invention prepared in accordance with Formulation Example 2 was diluted with water so as to be a predetermined herbicide amount and the diluted compound was uniformly applied to a stem and leaf part with a small-size spray. Three weeks after the herbicide application, effects on each plant were investigated in accordance with the criteria of Test Example 1. A: Echinochloa oryzicola Vasing., B: Scirpus juncoides, C: Monochoria vaginalis, D: Leptochloa chinensis, E: Cyperus difformis, F: Digitaria ciliaris, G: Setaria viridis, H: Echinochloa crus-galli var. crus-galli, I: Avena fatua, J: Alopecurus myosuroides, K: Lolium multiflorum Lam., L: Apera spica-venti., M: Abutilon theophrasti, N: Amaranthus retroflexus, O: Chenopodium album, P: Stellaria media, Q: Galium spurium, R: Veronica persica, a: transplanted Oryza sativa, b: directly sowed Oryza sativa, c: Zea mays, d: Glycine max, e: Triticum aestivum, f: Beta vulgaris ssp. vulgaris, and g: Brassica campestris L. The application herbicide amount (g/ha) means an amount that a concentration is adjusted so that, when an application amount is converted into per hectare (1 ha), the herbicide is applied by the number of grams (g) of the described value.

[6] = test system: Alopecurus myosuroides; test: as above; details: for J (Alopecurus myosuroides) herbicidal effect grade: foliage application
Description: as §2

[7] = test system: Amaranthus retroflexus; test: as above; details: for N (Amaranthus retroflexus) herbicidal effect grade: foliage application
Description: as §2

[8] = test system: Apera spica-venti.; test: as above; details: for L (Apera spica-venti.) herbicidal effect grade: foliage application
Description: as §2

[9] = test system: Avena fatua; test: as above; details: for I (Avena fatua) herbicidal effect grade: foliage application
Description: as §2

[10] = test system: Chenopodium album; test: as above; details: for O (Chenopodium album) herbicidal effect grade: foliage application
Description: as §2

[11] = test system: Digitaria ciliaris; test: as above; details: for F (Digitaria ciliaris) herbicidal effect grade: foliage application
Description: as §2

[12] = test system: Echinochloa crus-galli var. crus-galli; test: as above; details: for H (Echinochloa crus-galli var. crus-galli) herbicidal effect grade: foliage application
Description: as §2

[13] = test system: Galium spurium; test: as above; details: for Q (Galium spurium) herbicidal effect grade: foliage application
Description: as §2

[14] = test system: Lolium multiflorum Lam.; test: as above; details: for K (Lolium multiflorum Lam.) herbicidal effect grade: foliage application
Description: as §2

[15] = test system: Setaria viridis; test: as above; details: for G (Setaria viridis) herbicidal effect grade: foliage application
Description: as §2

[16] = test system: Stellaria media; test: as above; details: for P (Stellaria media) herbicidal effect grade: foliage application
Description: as §2

[17] = test system: Veronica persica; test: as above
Description: as §2

[18] = test system: Beta vulgaris ssp. vulgaris; test: Test Example 4: effect on crop by application to foliage (diluvial soil, plastic box); details: for f (Beta vulgaris ssp. vulgaris) effect on crop grade: foliage application
How it was run: (§3)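 Read-out is a 0–5 visual grade of herbicidal ratio (5: ≥90%, almost withered; 0: ≤5%) taken three weeks after treatment. Compound was applied as a diluted emulsion to stem and leaf parts of 14-day greenhouse-grown plants (25° C. to 30° C.) at rates expressed as g/ha.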

[19] = test system: Brassica campestris L.; test: as above; details: for g (Brassica campestris L.) effect on crop grade: foliage application
How it was run: as §3

[20] = test system: Glycine max; test: as above
How it was run: as §3

[21] = test system: Triticum aestivum; test: as above; details: for e (Triticum aestivum) effect on crop grade: foliage application
How it was run: as §3

[22] = test system: Zea mays; test: as above
How it was run: as §3

[23] = test system: directly sowed Oryza sativa; test: as above
How it was run: as §3

[24] = application herbicide amount 320 g/ha
[25] = application to foliage, application herbicide amount 320 g/ha
[26] = Application herbicide amount 320 g/ha
[27] = Application herbicide amount 320 g/ha, foliage application
[28] = application herbicide amount 131 g/ha

Cc1nnc(NC(=O)c2ccc(C(F)(F)F)n3c(COc4ccccc4)nnc23)o1 [1-025]
E (Cyperus difformis) herbicidal ratio grade [1, 24]: 2 (Herbicidal ratio of 20% or more and less than 40%)
H (Echinochloa crus-galli var. crus-galli) herbicidal ratio grade [2, 24]: 4 (Herbicidal ratio of 70% or more and less than 90%)
D (Leptochloa chinensis) herbicidal ratio grade [3, 24]: 3 (Herbicidal ratio of 40% or more and less than 70%)
b (directly sowed Oryza sativa) effect on crop grade [4, 24]: 2 (Herbicidal ratio of 20% or more and less than 40%)
M (Abutilon theophrasti) herbicidal effect [5, 25]: 5 (Herbicidal ratio of 90% or more (almost completely withered))
J (Alopecurus myosuroides) herbicidal effect [6, 25]: 0 (Herbicidal ratio of 5% or less (almost no effect))
N (Amaranthus retroflexus) herbicidal effect [7, 25]: 3 (Herbicidal ratio of 40% or more and less than 70%)
L (Apera spica-venti.) herbicidal effect [8, 25]: 0 (Herbicidal ratio of 5% or less (almost no effect))
I (Avena fatua) herbicidal effect [9, 25]: 0 (Herbicidal ratio of 5% or less (almost no effect))
O (Chenopodium album) herbicidal effect [10, 25]: 5 (Herbicidal ratio of 90% or more (almost completely withered))
F (Digitaria ciliaris) herbicidal effect [11, 25]: 3 (Herbicidal ratio of 40% or more and less than 70%)
H (Echinochloa crus-galli var. crus-galli) herbicidal effect [12, 25]: 4 (Herbicidal ratio of 70% or more and less than 90%)
Q (Galium spurium) herbicidal effect [13, 25]: 3 (Herbicidal ratio of 40% or more and less than 70%)
K (Lolium multiflorum Lam.) herbicidal effect [14, 25]: 0 (Herbicidal ratio of 5% or less (almost no effect))
G (Setaria viridis) herbicidal effect [15, 25]: 2 (Herbicidal ratio of 20% or more and less than 40%)
P (Stellaria media) herbicidal effect [16, 25]: 4 (Herbicidal ratio of 70% or more and less than 90%)
R (Veronica persica) herbicidal effect [17, 25]: 3 (Herbicidal ratio of 40% or more and less than 70%)
f (Beta vulgaris ssp. vulgaris) effect on crop [18, 25]: 5 (Herbicidal ratio of 90% or more (almost completely withered))
g (Brassica campestris L.) effect on crop [19, 25]: 2 (Herbicidal ratio of 20% or more and less than 40%)
c (Glycine max) effect on crop [20, 25]: 0 (Herbicidal ratio of 5% or less (almost no effect))
e (Triticum aestivum) effect on crop [21, 25]: 0 (Herbicidal ratio of 5% or less (almost no effect))
b (Zea mays) effect on crop [22, 25]: 0 (Herbicidal ratio of 5% or less (almost no effect))
d (directly sowed Oryza sativa) effect on crop [23, 25]: 3 (Herbicidal ratio of 40% or more and less than 70%)

CC(C)c1nnc2c(C(=O)Nc3nnc(CS(C)(=O)=O)o3)ccc(C(F)(F)F)n12 [1-142]
E (herbicidal effect grade) [1, 24]: 0 (Herbicidal ratio of 5% or less (almost no effect))
H (herbicidal effect grade) [2, 24]: 3 (Herbicidal ratio of 40% or more and less than 70%)
D (herbicidal effect grade) [3, 24]: 1 (Herbicidal ratio of 5% or more and less than 20%)
b (effect on crop grade) [4, 24]: 0 (Herbicidal ratio of 5% or less (almost no effect))
M (Abutilon theophrasti) herbicidal effect grade [5, 26]: 0 (Herbicidal ratio of 5% or less (almost no effect))
J (Alopecurus myosuroides) herbicidal effect grade [6, 26]: 0 (Herbicidal ratio of 5% or less (almost no effect))
N (Amaranthus retroflexus) herbicidal effect grade [7, 26]: 1 (Herbicidal ratio of 5% or more and less than 20%)
L (Apera spica-venti.) herbicidal effect grade [8, 26]: 0 (Herbicidal ratio of 5% or less (almost no effect))
I (Avena fatua) herbicidal effect grade [9, 26]: 0 (Herbicidal ratio of 5% or less (almost no effect))
O (Chenopodium album) herbicidal effect grade [10, 26]: 4 (Herbicidal ratio of 70% or more and less than 90%)
F (Digitaria ciliaris) herbicidal effect grade [11, 26]: 1 (Herbicidal ratio of 5% or more and less than 20%)
H (Echinochloa crus-galli var. crus-galli) herbicidal effect grade [12, 26]: 3 (Herbicidal ratio of 40% or more and less than 70%)
Q (Galium spurium) herbicidal effect grade [13, 26]: 1 (Herbicidal ratio of 5% or more and less than 20%)
K (Lolium multiflorum Lam.) herbicidal effect grade [14, 26]: 0 (Herbicidal ratio of 5% or less (almost no effect))
G (Setaria viridis) herbicidal effect grade [15, 26]: 0 (Herbicidal ratio of 5% or less (almost no effect))
P (Stellaria media) herbicidal effect grade [16, 26]: 2 (Herbicidal ratio of 20% or more and less than 40%)
R (Veronica persica) herbicidal effect grade [17, 27]: 0 (Herbicidal ratio of 5% or less (almost no effect))
f (Beta vulgaris ssp. vulgaris) effect on crop grade [18, 26]: 3 (Herbicidal ratio of 40% or more and less than 70%)
g (Brassica campestris L.) effect on crop grade [19, 26]: 0 (Herbicidal ratio of 5% or less (almost no effect))
d (Glycine max) effect on crop grade [20, 27]: 0 (Herbicidal ratio of 5% or less (almost no effect))
e (Triticum aestivum) effect on crop grade [21, 26]: 0 (Herbicidal ratio of 5% or less (almost no effect))
c (Zea mays) effect on crop grade [22, 27]: 0 (Herbicidal ratio of 5% or less (almost no effect))

CC(C)c1nnc2c(C(=O)Nc3nnnn3C)ccc(-c3ccccc3)n12 [2-055]
E (herbicidal effect grade) [1, 28]: 0 (Herbicidal ratio of 5% or less (almost no effect))
H (herbicidal effect grade) [2, 28]: 2 (Herbicidal ratio of 20% or more and less than 40%)
D (herbicidal effect grade) [3, 28]: 0 (Herbicidal ratio of 5% or less (almost no effect))
b (effect on crop grade) [4, 28]: 0 (Herbicidal ratio of 5% or less (almost no effect))
M (Abutilon theophrasti) herbicidal effect grade ([5]; 131 g/ha): 4 (Herbicidal ratio of 70% or more and less than 90%)
J (Alopecurus myosuroides) herbicidal effect grade ([6]; 131 g/ha): 0 (Herbicidal ratio of 5% or less (almost no effect))
N (Amaranthus retroflexus) herbicidal effect grade ([7]; 131 g/ha): 3 (Herbicidal ratio of 40% or more and less than 70%)
L (Apera spica-venti.) herbicidal effect grade ([8]; 131 g/ha): 0 (Herbicidal ratio of 5% or less (almost no effect))
I (Avena fatua) herbicidal effect grade ([9]; 131 g/ha): 0 (Herbicidal ratio of 5% or less (almost no effect))
O (Chenopodium album) herbicidal effect grade ([10]; 131 g/ha): 5 (Herbicidal ratio of 90% or more (almost completely withered))
F (Digitaria ciliaris) herbicidal effect grade ([11]; 131 g/ha): 0 (Herbicidal ratio of 5% or less (almost no effect))
H (Echinochloa crus-galli var. crus-galli) herbicidal effect grade ([12]; 131 g/ha): 0 (Herbicidal ratio of 5% or less (almost no effect))
Q (Galium spurium) herbicidal effect grade ([13]; 131 g/ha): 0 (Herbicidal ratio of 5% or less (almost no effect))
K (Lolium multiflorum Lam.) herbicidal effect grade ([14]; 131 g/ha): 0 (Herbicidal ratio of 5% or less (almost no effect))
G (Setaria viridis) herbicidal effect grade ([15]; 131 g/ha): 0 (Herbicidal ratio of 5% or less (almost no effect))
P (Stellaria media) herbicidal effect grade ([16]; 131 g/ha): 4 (Herbicidal ratio of 70% or more and less than 90%)
f (Beta vulgaris ssp. vulgaris) effect on crop grade ([18]; 131 g/ha): 1 (Herbicidal ratio of 5% or more and less than 20%)
g (Brassica campestris L.) effect on crop grade ([19]; 131 g/ha): 0 (Herbicidal ratio of 5% or less (almost no effect))
c (Glycine max) effect on crop grade ([20]; foliage application, 131 g/ha): 0 (Herbicidal ratio of 5% or less (almost no effect))
e (Triticum aestivum) effect on crop grade ([21]; 131 g/ha): 0 (Herbicidal ratio of 5% or less (almost no effect))
b (Zea mays) effect on crop grade ([22]; foliage application, 131 g/ha): 0 (Herbicidal ratio of 5% or less (almost no effect))
d (directly sowed Oryza sativa) effect on crop grade ([23]; foliage application, 131 g/ha): 1 (Herbicidal ratio of 5% or more and less than 20%)
